# Square brackets hold non-standard residues; d marks the D form. Peptide text beside a SMILES is read from it. * marks the point of attachment. Heptadecanoyl = CCCCCCCCCCCCCCCCC(=O)*; 2Nal = N[C@@H](Cc1ccc2ccccc2c1)C(=O)O; Cha = N[C@@H](CC1CCCCC1)C(=O)O; Undecanoyl = CCCCCCCCCCC(=O)*; Nonanoyl = CCCCCCCCC(=O)*
# Key:
# [1] = tested on: Staphylococcus aureus; assay: Antibacterial activity against methicillin resistant Staphylococcus aureus ATCC 33591 assessed as inhibition of bacterial growth incubated for 16 to 20 hrs by broth micro-dilution method; assay type: functional; settings: time 16-20 hrs
# [2] = tested on: Enterococcus faecium; assay: Antibacterial activity against Vancomycin resistant Enterococcus faecium ATCC 700221 assessed as inhibition of bacterial growth incubated for 16 to 20 hrs by broth micro-dilution method; assay type: functional; settings: time 16-20 hrs
# [3] = Hemolytic activity in human RBC; assay type: toxicity, cell-based, Erythrocyte; settings: red blood cells
# [4] = tested on: Staphylococcus aureus; assay: Antibacterial activity against Staphylococcus aureus ATCC 29213 assessed as bacterial growth inhibition measured after 18 hrs by CLSI protocol based two-fold serial microdilution method; assay type: functional
# [5] = tested on: Escherichia coli; assay: Antibacterial activity against Escherichia coli ATCC 25922 assessed as reduction in bacterial growth; assay type: functional
# [6] = tested on: Escherichia coli; assay: Antibacterial activity against Escherichia coli ATCC 25922 assessed as reduction in bacterial growth incubated for 18 to 20 hrs by Mueller Hinton broth dilution method; assay type: functional; settings: time 18-20 hrs
# [7] = Hemolytic activity in human RBC assessed as hemolysis; assay type: toxicity, cell-based, Erythrocyte; settings: red blood cells
# [8] = tested on: Staphylococcus aureus; assay: Antibacterial activity against Staphylococcus aureus ATCC 25923 assessed as reduction in bacterial growth incubated for 24 hrs by serial dilution method; assay type: functional
# [9] = tested on: Escherichia coli; assay: Antibacterial activity against Escherichia coli ATCC 25922 assessed as bacterial growth inhibition measured after 48 hrs by resazurin assay; assay type: functional
# [10] = tested on: Mycolicibacterium smegmatis; assay: Antimycobacterial activity against Mycobacterium smegmatis mc2 155 assessed as reduction in bacterial cell growth incubated for 24 hrs by resazurin dye based broth microdilution method; assay type: functional
# [11] = tested on: Bacillus subtilis; assay: Antimicrobial activity against Bacillus subtilis assessed as microbial growth inhibition incubated for 24 hrs by broth micro-dilution method; assay type: functional
# [12] = tested on: Escherichia coli; assay: Antibacterial acitivity against Escherichia coli DH5a assessed as bacterial growth inhibition incubated for 24 hrs by broth micro-dilution method; assay type: functional
# [13] = tested on: Zymomonas mobilis; assay: Antibacterial activity against Zymomonas mobilis ATCC 10988 assessed as reduction in bacterial growth incubated for 24 hrs by broth micro-dilution method; assay type: functional
# [14] = Hemolytic activity against human Red blood cells assessed as cell lysis; assay type: toxicity, cell-based, Erythrocyte
# [15] = tested on: Staphylococcus aureus; assay: Antibacterial activity against Staphylococcus aureus ATCC 25923 assessed as reduction in bacterial growth incubated for 48 hrs by Mueller-Hinton broth based microdilution method; assay type: functional
# [16] = tested on: Escherichia coli; assay: Antibacterial activity against Escherichia coli ATCC 25922 assessed as reduction in bacterial growth incubated for 48 hrs by Mueller-Hinton broth based microdilution method; assay type: functional
# [17] = tested on: Mycolicibacterium smegmatis; assay: Antibacterial activity against Mycobacterium smegmatis mc2 155 assessed as bacterial growth inhibition; assay type: functional
# [18] = tested on: Bacillus subtilis; assay: Antibacterial activity against Bacillus subtilis assessed as bacterial growth inhibition; assay type: functional
# [19] = tested on: Pseudomonas aeruginosa; assay: Antibacterial activity against Pseudomonas aeruginosa PAO1 assessed as bacterial growth inhibition; assay type: functional
# [20] = tested on: Escherichia coli; assay: Antibacterial activity against Escherichia coli DH5a assessed as bacterial growth inhibition; assay type: functional
# [21] = tested on: Zymomonas mobilis; assay: Antibacterial activity against Zymomonas mobilis ATCC 10988 assessed as bacterial growth inhibition; assay type: functional
# [22] = Hemolytic activity in human erythrocytes measured after 1 hrs by microplate reader analysis; assay type: toxicity, cell-based, Erythrocyte
Compound,MIC [17],MIC [18],MIC [19],MIC [20],MIC [21],HC50 at 1 h [22],other results
CC[C@@H](C)[C@@H](NC(=O)[C@H](CCCNC(=N)N)NC(=O)[C@H](CCCCN)NC(=O)[C@H](CC(C)C)NC(=O)[C@H](CC1CCCCC1)NC(=O)CN)C(=O)N[C@@H](CCCCN)C(=O)N[C@H](C(=O)N[C@@H](CC(C)C)C(=O)N[C@@H](CC1CCCCC1)C(N)=O)[C@@H](C)O,–,–,–,–,–,–,MIC [1]: 56.8 µM; MIC [2]: 56.8 µM
CC[C@H](C)[C@H](NC(=O)[C@H](Cc1ccccc1)NC(=O)[C@H](CCCCN)NC(=O)[C@H](CC(C)C)NC(=O)[C@H](CC(C)C)NC(=O)CN)C(=O)N[C@@H](CCCCN)C(=O)N[C@H](C(=O)N[C@@H](CC(C)C)C(=O)N[C@@H](CC(C)C)C(N)=O)[C@@H](C)O (H-GLLKFIKTLL-NH2),–,–,–,–,–,–,HC50 [3]: 67.3 µM; MIC [4]: 1.8 µM; MIC [5]: 1.8 µM
CC[C@H](C)[C@H](NC(=O)[C@H](CCCCN)NC(=O)[C@H](CC(C)C)NC(=O)[C@H](CC(C)C)NC(=O)CN)C(=O)N[C@H](C(=O)N[C@@H](CCCCN)C(=O)N[C@H](C(=O)N[C@@H](CC(C)C)C(=O)N[C@@H](CC(C)C)C(N)=O)[C@@H](C)O)[C@@H](C)CC (H-GLLKIIKTLL-NH2),–,–,–,–,–,–,HC50 [3]: 26.1 µM; MIC [4]: 1.8 µM; MIC [5]: 1.8 µM
CC(C)C[C@H](NC(=O)CN)C(=O)N[C@@H](CC(C)C)C(=O)N[C@@H](CCCCN)C(=O)N[C@@H](CCCCN)C(=O)N[C@@H](Cc1ccc2ccccc2c1)C(=O)N[C@@H](CCCCN)C(=O)N[C@@H](CCCCN)C(=O)N[C@@H](CC(C)C)C(=O)N[C@@H](CC1CCCCC1)C(N)=O (H-GLLKK[2Nal]KKL[Cha]-NH2),–,–,–,–,–,–,MIC [1]: 9.5 µM; MIC [2]: 3.2 µM; MIC [6]: 16 µM
CC[C@H](C)[C@H](NC(=O)[C@H](CC(C)C)NC(=O)[C@H](CCCCN)NC(=O)[C@H](CC(C)C)NC(=O)[C@H](CC(C)C)NC(=O)CN)C(=O)N[C@@H](CCCCN)C(=O)N[C@H](C(=O)N[C@@H](CC(C)C)C(=O)N[C@@H](CC(C)C)C(N)=O)[C@@H](C)O (H-GLLKLIKTLL-NH2),–,–,–,–,–,–,HC50 [3]: 11.7 µM; MIC [4]: 1.8 µM; MIC [5]: 1.8 µM
CC[C@H](C)[C@H](NC(=O)[C@H](CC(N)=O)NC(=O)[C@H](CCCCN)NC(=O)[C@H](CC(C)C)NC(=O)[C@H](CC(C)C)NC(=O)CN)C(=O)N[C@@H](CCCCN)C(=O)N[C@H](C(=O)N[C@@H](CC(C)C)C(=O)N[C@@H](CC(C)C)C(N)=O)[C@@H](C)O (H-GLLKNIKTLL-NH2),–,–,–,–,–,–,MIC [4]: 1.7 µM; MIC [5]: 1.7 µM
CC[C@H](C)[C@H](NC(=O)[C@H](CCCNC(=N)N)NC(=O)[C@H](CCCCN)NC(=O)[C@H](CC(C)C)NC(=O)[C@H](CC(C)C)NC(=O)CN)C(=O)N[C@@H](CCCCN)C(=O)N[C@@H](Cc1c[nH]c2ccccc12)C(=O)N[C@@H](CC(C)C)C(=O)N[C@@H](CC(C)C)C(N)=O (H-GLLKRIKWLL-NH2),–,–,–,–,–,–,HC50 [7]: 500 µM; MIC [8]: 3.2 µM; MIC [9]: 6.5 µM
CC[C@H](C)[C@H](NC(=O)[C@@H](NC(=O)[C@H](CCCCN)NC(=O)[C@H](CC(C)C)NC(=O)[C@H](CC(C)C)NC(=O)CN)C(C)C)C(=O)N[C@@H](CCCCN)C(=O)N[C@H](C(=O)N[C@@H](CC(C)C)C(=O)N[C@@H](CC(C)C)C(N)=O)[C@@H](C)O (H-GLLKVIKTLL-NH2),–,–,–,–,–,–,HC50 [3]: 54.7 µM; MIC [4]: 2.7 µM; MIC [5]: 2.7 µM
CC[C@H](C)[C@H](NC(=O)[C@H](Cc1ccccc1)NC(=O)[C@H](CCCCN)NC(=O)[C@H](CC(C)C)NC(=O)[C@H](CC(C)C)NC(=O)[C@@H](N)CCCCN)C(=O)N[C@@H](CCCCN)C(=O)N[C@@H](CCCCN)C(=O)N[C@@H](CC(C)C)C(=O)N[C@@H](CC(C)C)C(N)=O (H-KLLKFIKKLL-NH2),–,–,–,–,–,–,MIC [10]: 13.3 µM; MIC [11]: 35.6 µM; MIC [12]: 322 µM; MIC [13]: 8.9 µM; HC50 [14]: > 403 µM
CC[C@H](C)[C@H](NC(=O)[C@H](Cc1ccccc1)NC(=O)[C@H](CCCCN)NC(=O)[C@H](CC(C)C)NC(=O)[C@H](CC(C)C)NC(=O)[C@@H](N)CCCNC(=N)N)C(=O)N[C@@H](CCCCN)C(=O)N[C@@H](CCCCN)C(=O)N[C@@H](CC(C)C)C(=O)N[C@@H](CC(C)C)C(N)=O (H-RLLKFIKKLL-NH2),–,–,–,–,–,–,MIC [10]: 15.8 µM; MIC [11]: 31.5 µM; MIC [12]: 315 µM; MIC [13]: 7.9 µM; HC50 [14]: > 394 µM
CCCCCCCCCCCCCCCCC(=O)NCC(=O)N[C@@H](CC(C)C)C(=O)N[C@@H](CC(C)C)C(=O)N[C@@H](CCCCN)C(=O)N[C@@H](CCCNC(=N)N)C(=O)N[C@H](C(=O)N[C@@H](CCCCN)C(=O)N[C@H](C(=O)N[C@@H](CC(C)C)C(=O)N[C@@H](CC(C)C)C(N)=O)[C@@H](C)O)[C@@H](C)CC (Heptadecanoyl-GLLKRIKTLL-NH2),–,–,–,–,–,–,MIC [15]: 4.67 µM; MIC [16]: 2.34 µM
CCCCCCCCC(=O)NCC(=O)N[C@@H](CC(C)C)C(=O)N[C@@H](CCCCN)C(=O)N[C@@H](CCCCN)C(=O)N[C@H](C(=O)N[C@H](C(=O)N[C@@H](CCCCN)C(=O)N[C@@H](CCCCN)C(=O)N[C@@H](CC(C)C)C(=O)N[C@@H](CC(C)C)C(N)=O)[C@@H](C)CC)[C@@H](C)CC (Nonanoyl-GLKKIIKKLL-NH2),2.3 µM,3.83 µM,11.5 µM,76.6 µM,11.5 µM,61.9 µM,–
CCCCCCCCC(=O)NCC(=O)N[C@@H](CC(C)C)C(=O)N[C@@H](CC(C)C)C(=O)N[C@@H](CCCCN)C(=O)N[C@H](C(=O)N[C@H](C(=O)N[C@@H](CCCCN)C(=O)N[C@@H](CCCCN)C(=O)N[C@@H](CC(C)C)C(=O)N[C@@H](CC(C)C)C(N)=O)[C@@H](C)CC)[C@@H](C)CC (Nonanoyl-GLLKIIKKLL-NH2),15.5 µM,5.43 µM,23.3 µM,> 155 µM,7.75 µM,> 155 µM,–
CCCCCCCCCCC(=O)NCC(=O)N[C@@H](CC(C)C)C(=O)N[C@@H](CCCCN)C(=O)N[C@@H](CCCCN)C(=O)N[C@H](C(=O)N[C@H](C(=O)N[C@@H](CCCCN)C(=O)N[C@@H](CCCCN)C(=O)N[C@@H](CC(C)C)C(=O)N[C@@H](CC(C)C)C(N)=O)[C@@H](C)CC)[C@@H](C)CC (Undecanoyl-GLKKIIKKLL-NH2),0.42 µM,5.83 µM,16.7 µM,25 µM,12.5 µM,62.9 µM,–
CCCCCCCCCCC(=O)NCC(=O)N[C@@H](CC(C)C)C(=O)N[C@@H](CC(C)C)C(=O)N[C@@H](CCCCN)C(=O)N[C@H](C(=O)N[C@H](C(=O)N[C@@H](CCCCN)C(=O)N[C@@H](CCCCN)C(=O)N[C@@H](CC(C)C)C(=O)N[C@@H](CC(C)C)C(N)=O)[C@@H](C)CC)[C@@H](C)CC (Undecanoyl-GLLKIIKKLL-NH2),6.08 µM,26 µM,34.7 µM,> 174 µM,8.68 µM,38.7 µM,–
CCCCCCCCCCC(=O)NCC(=O)N[C@@H](CC(C)C)C(=O)N[C@@H](CC(C)C)C(=O)N[C@@H](CCCCN)C(=O)N[C@H](C(=O)N[C@H](C(=O)N[C@@H](CCCCN)C(=O)N[C@@H](CCCNC(=N)N)C(=O)N[C@@H](CC(C)C)C(=O)N[C@@H](CC(C)C)C(N)=O)[C@@H](C)CC)[C@@H](C)CC (Undecanoyl-GLLKIIKRLL-NH2),33.3 µM,167 µM,33.3 µM,> 167 µM,12.5 µM,56.8 µM,–
CCCCCCCCCCC(=O)NCC(=O)N[C@@H](CC(C)C)C(=O)N[C@@H](CC(C)C)C(=O)N[C@@H](CCCCN)C(=O)N[C@@H](CCCCN)C(=O)N[C@H](C(=O)N[C@@H](CCCCN)C(=O)N[C@@H](CCCNC(=N)N)C(=O)N[C@@H](CC(C)C)C(=O)N[C@@H](CC(C)C)C(N)=O)[C@@H](C)CC (Undecanoyl-GLLKKIKRLL-NH2),86.2 µM,86.2 µM,2.58 µM,34.4 µM,4.3 µM,38 µM,–

# Source: ChEMBL document CHEMBL5608163, “Structure modification of anoplin for fighting resistant bacteria” (Eur J Med Chem, 2024)
